Laboratory results taken from ChEMBL document CHEMBL1201862, “PubChem BioAssay data set” (2004).
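Step 1: Grow cells in 96-well plates. Step 2: Expose to compound for 48 hours at 5 concentrations. Step 3: Interpolate endpoints linearly; if unreached, use highest concentration. GI50 marks 50% less growth.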 Active and inactive are the calls of the source. Rule as the data show it: active = GI50 up to about 1.1 µM and inactive = higher.

How the values were obtained:
Assay in all cases: inhibition of tumour cell growth, NCI panel, 48 h
CAKI-1 = system: CAKI-1
NCI/ADR-RES = system: NCI/ADR-RES
BT-549 = system: BT-549
SF-539 = system: SF-539
HCT-116 = system: HCT-116
MCF7 = system: MCF7
OVCAR-8 = system: OVCAR-8
SW-620 = system: SW-620
K562 = system: K562
IGROV-1 = system: IGROV-1
DU-145 = system: DU-145
Malme-3M = system: Malme-3M
HL-60 = system: HL-60
SK-MEL-28 = system: SK-MEL-28
MDA-N = system: MDA-N
COLO 205 = system: COLO 205
UACC-257 = system: UACC-257
A498 = system: A498
CCRF-CEM = system: CCRF-CEM
ACHN = system: ACHN
M14 = system: M14
SK-MEL-2 = system: SK-MEL-2
RPMI-8226 = system: RPMI-8226
OVCAR-5 = system: OVCAR-5
SK-MEL-5 = system: SK-MEL-5
SN12C = system: SN12C
MOLT-4 = system: MOLT-4
TK-10 = system: TK-10
RXF 393 = system: RXF 393
LOX IMVI = system: LOX IMVI
SNB-19 = system: SNB-19
SF-268 = system: SF-268
HCT-15 = system: HCT-15
OVCAR-3 = system: OVCAR-3
SK-OV-3 = system: SK-OV-3
Hs-578T = system: Hs-578T
NCI-H226 = system: NCI-H226
U-251 = system: U-251
PC-3 = system: PC-3
UACC-62 = system: UACC-62
EKVX = system: EKVX
MDA-MB-435 = system: MDA-MB-435
MDA-MB-231 = system: MDA-MB-231
NCI-H23 = system: NCI-H23
KM12 = system: KM12
HT-29 = system: HT-29
786-0 = system: 786-0
UO-31 = system: UO-31
A549 = system: A549
SR = system: SR
HOP-62 = system: HOP-62
HOP-92 = system: HOP-92
NCI-H522 = system: NCI-H522
NCI-H460 = system: NCI-H460
SNB-75 = system: SNB-75
OVCAR-4 = system: OVCAR-4
HCC 2998 = system: HCC 2998
T47D = system: T47D
SF-295 = system: SF-295

Question: `O=C(c1ccco1)N(C(=O)N1CCCCC1)c1ccccc1` was tested. Which GI50 (CAKI-1) did it give?
Answer: > 100000 nM (inactive)

Question: And the GI50 (NCI/ADR-RES)?
Answer: > 100000 nM (inactive)

Question: And the GI50 (BT-549)?
Answer: > 100000 nM (inactive)

Question: What about the GI50 (SF-539) of the same compound?
Answer: > 100000 nM (inactive)

Question: What about the GI50 (HCT-116) of the same compound?
Answer: > 100000 nM (inactive)

Question: And the GI50 (MCF7)?
Answer: > 100000 nM (inactive)

Question: What about the GI50 (OVCAR-8) of the same compound?
Answer: > 100000 nM (inactive)

Question: What about the GI50 (SW-620) of the same compound?
Answer: > 100000 nM (inactive)

Question: What about the GI50 (K562) of the same compound?
Answer: > 100000 nM (inactive)

Question: And the GI50 (IGROV-1)?
Answer: > 100000 nM (inactive)

Question: And the GI50 (DU-145)?
Answer: > 100000 nM (inactive)

Question: What about the GI50 (Malme-3M) of the same compound?
Answer: 41200 nM (inactive)

Question: And the GI50 (HL-60)?
Answer: > 100000 nM (inactive)

Question: What about the GI50 (SK-MEL-28) of the same compound?
Answer: > 100000 nM (inactive)

Question: What about the GI50 (MDA-N) of the same compound?
Answer: > 100000 nM (inactive)

Question: And the GI50 (COLO 205)?
Answer: > 100000 nM (inactive)

Question: And the GI50 (UACC-257)?
Answer: > 100000 nM (inactive)

Question: What about the GI50 (A498) of the same compound?
Answer: > 100000 nM (inactive)

Question: And the GI50 (CCRF-CEM)?
Answer: > 100000 nM (inactive)

Question: And the GI50 (ACHN)?
Answer: > 100000 nM (inactive)

Question: What about the GI50 (M14) of the same compound?
Answer: > 100000 nM (inactive)

Question: What about the GI50 (SK-MEL-2) of the same compound?
Answer: > 100000 nM (inactive)

Question: What about the GI50 (RPMI-8226) of the same compound?
Answer: > 100000 nM (inactive)

Question: And the GI50 (OVCAR-5)?
Answer: > 100000 nM (inactive)

Question: And the GI50 (SK-MEL-5)?
Answer: > 100000 nM (inactive)

Question: What about the GI50 (SN12C) of the same compound?
Answer: > 100000 nM (inactive)

Question: What about the GI50 (MOLT-4) of the same compound?
Answer: > 100000 nM (inactive)

Question: What about the GI50 (TK-10) of the same compound?
Answer: > 100000 nM (inactive)

Question: What about the GI50 (RXF 393) of the same compound?
Answer: 87900 nM (inactive)

Question: And the GI50 (LOX IMVI)?
Answer: > 100000 nM (inactive)

Question: What about the GI50 (SNB-19) of the same compound?
Answer: > 100000 nM (inactive)

Question: What about the GI50 (SF-268) of the same compound?
Answer: > 100000 nM (inactive)

Question: And the GI50 (HCT-15)?
Answer: > 100000 nM

Question: What about the GI50 (OVCAR-3) of the same compound?
Answer: > 100000 nM (inactive)

Question: What about the GI50 (SK-OV-3) of the same compound?
Answer: > 100000 nM (inactive)

Question: What about the GI50 (Hs-578T) of the same compound?
Answer: > 100000 nM (inactive)

Question: And the GI50 (NCI-H226)?
Answer: > 100000 nM (inactive)

Question: What about the GI50 (U-251) of the same compound?
Answer: > 100000 nM (inactive)

Question: What about the GI50 (PC-3) of the same compound?
Answer: > 100000 nM (inactive)

Question: What about the GI50 (UACC-62) of the same compound?
Answer: > 100000 nM (inactive)

Question: What about the GI50 (EKVX) of the same compound?
Answer: > 100000 nM (inactive)

Question: And the GI50 (MDA-MB-435)?
Answer: > 100000 nM (inactive)

Question: And the GI50 (MDA-MB-231)?
Answer: > 100000 nM (inactive)

Question: And the GI50 (NCI-H23)?
Answer: > 100000 nM (inactive)

Question: And the GI50 (KM12)?
Answer: > 100000 nM (inactive)

Question: And the GI50 (HT-29)?
Answer: > 100000 nM (inactive)

Question: And the GI50 (786-0)?
Answer: > 100000 nM (inactive)

Question: And the GI50 (UO-31)?
Answer: > 100000 nM (inactive)

Question: `C=C1C(=O)O[C@H]2[C@H]3O[C@@H](C[C@@H]12)[C@@]1(C)CC[C@H](O1)[C@H](C)CCC[C@H]3C` was tested. Which GI50 (A549) did it give?
Answer: 2160 nM (inactive)

Question: And the GI50 (CAKI-1)?
Answer: 1280 nM (inactive)

Question: And the GI50 (NCI/ADR-RES)?
Answer: 1530 nM (inactive)

Question: And the GI50 (BT-549)?
Answer: 811 nM (active)

Question: What about the GI50 (SR) of the same compound?
Answer: 148 nM (active)

Question: And the GI50 (HCT-116)?
Answer: 1040 nM (active)

Question: What about the GI50 (MCF7) of the same compound?
Answer: 1770 nM (inactive)

Question: What about the GI50 (OVCAR-8) of the same compound?
Answer: 1380 nM (inactive)

Question: What about the GI50 (HOP-62) of the same compound?
Answer: 4740 nM (inactive)

Question: What about the GI50 (SW-620) of the same compound?
Answer: 1460 nM (inactive)

Question: And the GI50 (K562)?
Answer: 1440 nM (inactive)

Question: And the GI50 (IGROV-1)?
Answer: 1190 nM (inactive)

Question: And the GI50 (DU-145)?
Answer: 1520 nM (inactive)

Question: And the GI50 (Malme-3M)?
Answer: 1720 nM (inactive)

Question: What about the GI50 (HL-60) of the same compound?
Answer: 237 nM (active)

Question: What about the GI50 (SK-MEL-28) of the same compound?
Answer: 1630 nM (inactive)

Question: And the GI50 (COLO 205)?
Answer: 1750 nM (inactive)

Question: And the GI50 (UACC-257)?
Answer: 1910 nM (inactive)

Question: What about the GI50 (A498) of the same compound?
Answer: 1710 nM (inactive)

Question: What about the GI50 (HOP-92) of the same compound?
Answer: 1430 nM (inactive)

Question: And the GI50 (CCRF-CEM)?
Answer: 399 nM (active)

Question: And the GI50 (ACHN)?
Answer: 1510 nM (inactive)

Question: What about the GI50 (SK-MEL-2) of the same compound?
Answer: 2090 nM (inactive)

Question: What about the GI50 (RPMI-8226) of the same compound?
Answer: 512 nM (active)

Question: What about the GI50 (NCI-H522) of the same compound?
Answer: 1420 nM (inactive)

Question: And the GI50 (OVCAR-5)?
Answer: 1670 nM (inactive)

Question: And the GI50 (SK-MEL-5)?
Answer: 1420 nM (inactive)

Question: What about the GI50 (SN12C) of the same compound?
Answer: 2220 nM (inactive)

Question: What about the GI50 (NCI-H460) of the same compound?
Answer: 1760 nM (inactive)

Question: What about the GI50 (MOLT-4) of the same compound?
Answer: 1230 nM (inactive)

Question: And the GI50 (TK-10)?
Answer: 1620 nM (inactive)

Question: And the GI50 (RXF 393)?
Answer: 2150 nM (inactive)

Question: And the GI50 (LOX IMVI)?
Answer: 1550 nM (inactive)

Question: What about the GI50 (SNB-19) of the same compound?
Answer: 10100 nM (inactive)

Question: And the GI50 (SF-268)?
Answer: 1670 nM (inactive)

Question: And the GI50 (HCT-15)?
Answer: 1810 nM

Question: And the GI50 (SNB-75)?
Answer: 1630 nM (inactive)

Question: And the GI50 (OVCAR-3)?
Answer: 1100 nM (active)

Question: What about the GI50 (OVCAR-4) of the same compound?
Answer: 1580 nM (inactive)

Question: What about the GI50 (SK-OV-3) of the same compound?
Answer: 7380 nM (inactive)

Question: And the GI50 (Hs-578T)?
Answer: 2640 nM (inactive)

Question: And the GI50 (NCI-H226)?
Answer: 1530 nM (inactive)

Question: What about the GI50 (U-251) of the same compound?
Answer: 1500 nM (inactive)

Question: What about the GI50 (PC-3) of the same compound?
Answer: 1610 nM (inactive)

Question: And the GI50 (HCC 2998)?
Answer: 1280 nM (inactive)

Question: What about the GI50 (UACC-62) of the same compound?
Answer: 1810 nM (inactive)

Question: What about the GI50 (EKVX) of the same compound?
Answer: 1440 nM (inactive)

Question: What about the GI50 (MDA-MB-435) of the same compound?
Answer: 1320 nM (inactive)

Question: And the GI50 (MDA-MB-231)?
Answer: 1650 nM (inactive)

Question: What about the GI50 (NCI-H23) of the same compound?
Answer: 1750 nM (inactive)

Question: And the GI50 (KM12)?
Answer: 2180 nM (inactive)

Question: What about the GI50 (HT-29) of the same compound?
Answer: 1290 nM (inactive)

Question: What about the GI50 (T47D) of the same compound?
Answer: 2210 nM (inactive)

Question: And the GI50 (SF-295)?
Answer: 4820 nM (inactive)

Question: What about the GI50 (786-0) of the same compound?
Answer: 1310 nM (inactive)

Question: What about the GI50 (UO-31) of the same compound?
Answer: 1560 nM (inactive)
